According to publication PMC9169622 (Proceedings of the National Academy of Sciences of the …, 2022):
Substitutions are numbered along the chain they refer to. Several values for one entry are separate records, joined by “and”; a condition that tells them apart may be missing. Equal values may be shown once.

Columns and labels:
GPR126 [1] = target: T1, GPR126 (Homo sapiens, UniProt Q86SQ4); test: cell-based; assay type: cell-based
T1 sequence (Q86SQ4 38-1221): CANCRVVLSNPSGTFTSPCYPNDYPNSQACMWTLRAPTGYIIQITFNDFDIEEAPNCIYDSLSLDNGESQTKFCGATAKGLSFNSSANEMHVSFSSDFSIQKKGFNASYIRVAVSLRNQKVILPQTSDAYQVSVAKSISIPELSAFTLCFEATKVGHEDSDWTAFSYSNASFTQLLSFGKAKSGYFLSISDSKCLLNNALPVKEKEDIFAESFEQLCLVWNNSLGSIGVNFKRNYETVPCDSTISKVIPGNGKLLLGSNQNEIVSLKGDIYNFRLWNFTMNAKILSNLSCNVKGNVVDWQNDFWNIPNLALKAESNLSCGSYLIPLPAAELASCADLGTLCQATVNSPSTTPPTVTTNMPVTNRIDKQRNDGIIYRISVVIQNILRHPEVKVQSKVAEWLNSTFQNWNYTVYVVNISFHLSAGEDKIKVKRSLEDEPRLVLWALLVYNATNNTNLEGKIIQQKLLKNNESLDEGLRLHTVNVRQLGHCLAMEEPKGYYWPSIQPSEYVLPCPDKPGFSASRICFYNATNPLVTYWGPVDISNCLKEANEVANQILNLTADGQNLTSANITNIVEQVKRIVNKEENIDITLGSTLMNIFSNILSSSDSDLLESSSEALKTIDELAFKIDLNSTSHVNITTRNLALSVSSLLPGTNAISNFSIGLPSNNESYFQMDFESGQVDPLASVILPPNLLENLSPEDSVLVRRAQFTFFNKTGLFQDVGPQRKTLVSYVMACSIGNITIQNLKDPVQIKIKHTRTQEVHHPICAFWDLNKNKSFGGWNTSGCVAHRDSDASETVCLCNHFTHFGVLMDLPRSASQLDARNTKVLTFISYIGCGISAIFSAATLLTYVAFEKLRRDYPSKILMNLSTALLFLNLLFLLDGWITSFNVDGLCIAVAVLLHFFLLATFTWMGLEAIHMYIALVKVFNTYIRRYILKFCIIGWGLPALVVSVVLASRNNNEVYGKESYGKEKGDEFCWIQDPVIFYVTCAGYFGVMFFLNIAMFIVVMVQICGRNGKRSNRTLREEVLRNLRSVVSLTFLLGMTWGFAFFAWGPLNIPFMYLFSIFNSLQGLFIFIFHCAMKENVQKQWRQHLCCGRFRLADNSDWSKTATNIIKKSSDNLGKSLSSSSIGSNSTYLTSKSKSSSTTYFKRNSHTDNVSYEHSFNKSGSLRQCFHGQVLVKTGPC

GPR126 [2] = target: T1, GPR126; assay type: cell-based
MDA-MB-231 cells [3] = assay type: cell-based, human
GPR126-β = target: T2, GPR126-β (Homo sapiens, UniProt Q86SQ4); test: GloSensor cAMP inhibition assay, GPR126-β construct; assay type: cell-based
T2 sequence (Q86SQ4 841-1221 limits assumed): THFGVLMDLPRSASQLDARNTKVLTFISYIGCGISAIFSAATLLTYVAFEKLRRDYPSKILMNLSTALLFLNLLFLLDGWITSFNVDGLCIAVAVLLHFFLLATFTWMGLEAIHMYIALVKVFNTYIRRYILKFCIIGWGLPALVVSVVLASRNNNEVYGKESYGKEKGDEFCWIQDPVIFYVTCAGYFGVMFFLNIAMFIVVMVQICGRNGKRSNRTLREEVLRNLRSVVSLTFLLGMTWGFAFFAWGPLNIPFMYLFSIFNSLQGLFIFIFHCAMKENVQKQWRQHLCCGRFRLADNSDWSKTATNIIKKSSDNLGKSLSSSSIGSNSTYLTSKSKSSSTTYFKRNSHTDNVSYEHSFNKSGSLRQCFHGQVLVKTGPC

PAQR7 = target: T3, PAQR7 (Homo sapiens, UniProt Q86WK9); test: GloSensor cAMP inhibition assay in HEK293 cells overexpressing PAQR7; assay type: cell-based; settings: similar plasma membrane expression levels
T3 sequence (Q86WK9 1-346): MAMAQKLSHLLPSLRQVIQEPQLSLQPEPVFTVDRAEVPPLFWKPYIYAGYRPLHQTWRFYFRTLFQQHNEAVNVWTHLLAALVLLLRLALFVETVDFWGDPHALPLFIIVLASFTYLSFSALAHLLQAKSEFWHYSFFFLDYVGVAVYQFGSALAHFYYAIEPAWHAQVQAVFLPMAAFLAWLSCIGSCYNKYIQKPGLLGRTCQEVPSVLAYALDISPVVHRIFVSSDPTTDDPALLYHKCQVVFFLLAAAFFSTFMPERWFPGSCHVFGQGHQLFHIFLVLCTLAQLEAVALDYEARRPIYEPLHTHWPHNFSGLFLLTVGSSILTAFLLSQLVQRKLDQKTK

GPR126 [4] = target: T1, GPR126; settings: angiotensin II and AT1R as controls
[5] = Plasma progesterone level after intraperitoneal injection; assay type: in vivo, nude mice
GPR126 [6] = assay type: cell-based, human
PAQR8 = target: T4, PAQR8 (Homo sapiens, UniProt Q8TEZ7); test: GloSensor cAMP inhibition assay in HEK293 cells overexpressing PAQR8; assay type: cell-based; settings: similar plasma membrane expression levels
T4 sequence (Q8TEZ7 1-354): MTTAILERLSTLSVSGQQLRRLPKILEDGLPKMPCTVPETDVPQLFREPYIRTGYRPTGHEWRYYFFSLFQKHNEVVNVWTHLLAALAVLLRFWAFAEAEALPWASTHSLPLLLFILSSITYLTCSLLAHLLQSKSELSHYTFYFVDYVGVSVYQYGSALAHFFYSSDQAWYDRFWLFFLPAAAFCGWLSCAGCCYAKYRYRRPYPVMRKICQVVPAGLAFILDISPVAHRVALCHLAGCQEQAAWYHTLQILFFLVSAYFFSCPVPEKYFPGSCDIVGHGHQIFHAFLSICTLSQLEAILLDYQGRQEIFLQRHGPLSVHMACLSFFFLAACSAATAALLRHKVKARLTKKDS

GPR126 [7] = target: T1, GPR126; settings: angiotensin II and AT1R as controls; remark: listed apart in the source
MDA-MB-231 cells [8] = test: Nude mouse xenograft model; assay type: in vivo, nude mice; settings: 15 mg/kg i.p. every 3 d
MDA-MB-231 cells [9] = test: Colony formation assay; assay type: cell-based, human
full-length GPR126 [10] = target: T5, full-length GPR126 (Homo sapiens, UniProt Q86SQ4); test: cell-based; assay type: cell-based
T5 sequence (Q86SQ4 38-1221): T1 sequence (Q86SQ4 38-1221)

full-length GPR126 [11] = test: cell-based; assay type: cell-based, human
full-length GPR126 [12] = target: T6, full-length GPR126 (Homo sapiens, UniProt Q86SQ4, R1057Q); test: cell-based; assay type: cell-based
T6 sequence (Q86SQ4 38-1221 R1057Q): T1 sequence (Q86SQ4 38-1221) with R1020Q

SRC = test: Western blot of p-SRC Y416, p-AKT S473, p-ERK T202/Y204; assay type: cell-based, human; settings: 10 nM

C[C@]12CCC(=O)C=C1CC[C@@H]1[C@@H]2CC[C@@]2(C)[C@H]1CC[C@]2(O)C(=O)CO [11-deoxycortisol]
EC50 (GPR126 [1]): 1400 ± 140 nM
Emax compared with 126-SMP, cAMP accumulation (GPR126 [1]): less than one-sixth
effect on intracellular cAMP accumulation (GPR126 [1]): weak but detectable increase

C=C[C@@]1(C)CC(=O)[C@]2(O)[C@@]3(C)[C@@H](O)CCC(C)(C)[C@@H]3[C@H](O)[C@H](OC(C)=O)[C@@]2(C)O1 [Fsk, Forskolin]
cAMP up-regulation compared to control vehicle (GPR126 [2]): approximately three times

COc1cc2ncnc(Nc3ccc(Oc4ccccc4)cc3)c2cc1OC [Src-I1]
effect of SRC inhibitor on progesterone-induced cell growth (MDA-MB-231 cells [3]): significantly suppressed

CC(=O)[C@H]1CC[C@H]2[C@@H]3CCC4=CC(=O)CC[C@]4(C)[C@H]3CC[C@]12C [progesterone]
EC50 for GPR126-β lower than that of full-length GPR126 (GPR126-β): ~10 fold
activation of PAQR7 stronger than GPR126 (potency) (PAQR7): ~100 fold
efficacy at PAQR7 compared with GPR126 (PAQR7): significant lower efficacy
Gq activity of GPR126 (GPR126 [4]): no obvious
maximum plasma concentration ([5]; mice, 15 mg/kg intraperitoneal injection): 151 nM
steady plasma level ([5]; mice, 15 mg/kg intraperitoneal injection, from 8 h): 4.547 nM
Tmax ([5]; nude, mouse, plasma, ip, 15 mg/kg): ~1 h
Gs coupling of GPR126 (GPR126 [1]): not detectable
BRET signal between Nluc-N terminus and FlAsH-labeled S1 site of ECL1 (GPR126 [6]): increase
GPR126 response with mutation of F1085 (GPR126 [6]): impaired
extracellular conformational change of GPR126 with K1001 or F1012 mutated to Ala (GPR126 [6]): no significant effects
BRET signal between Nluc-tagged N terminus and FlAsH-labeled ECL2 (GPR126 [6]; concentration-dependent): significant increase
growth of GPR126-silenced cells overexpressing wild-type GPR126 or L937A (MDA-MB-231 cells [3]): significantly promoted
growth promotion in GPR126-silenced cells overexpressing W1081A or F1085A (MDA-MB-231 cells [3]): significantly attenuated
increase in growth rate of Sh-CTRL cells (MDA-MB-231 cells [3]): approximately twofold
induced cell growth in GPR126-silenced cells overexpressing R1057Q (MDA-MB-231 cells [3]): inhibited
proliferation-promoting effect in GPR126-silenced cells (MDA-MB-231 cells [3]): attenuated
activation of PAQR8 stronger than GPR126 (potency) (PAQR8): ~100 fold
efficacy at PAQR8 compared with GPR126 (PAQR8): significant lower efficacy
cAMP levels in GPR126 knocking down cells (GPR126 [2]): no significant effects
cAMP levels induced by Fsk in GPR126-expressing cells (GPR126 [2]): inhibited
β-arrestin-2 recruitment of GPR126 (GPR126 [7]): no obvious
rates of mouse weight gain between groups (MDA-MB-231 cells [8]): not significantly different
tumor growth in the Sh-CTRL group (MDA-MB-231 cells [8]; 32 d): significantly enhanced
tumor growth in the Sh-GPR126-1 group (MDA-MB-231 cells [8]; 32 d): minimal effects
size and weight of tumors in the Sh-CTRL group (MDA-MB-231 cells [8]; after 32 d): significantly increased
size and weight of tumors in the Sh-GPR126-1 group (MDA-MB-231 cells [8]; after 32 d): no significant effects
colony number and size in Sh-CTRL cells (MDA-MB-231 cells [9]; MDA-MB-231 Sh-CTRL, 10 nM): increase
increase in colony number and size after GPR126 knockdown (MDA-MB-231 cells [9]; MDA-MB-231 Sh-GPR126, 10 nM): largely abolished
able to inhibit Fsk-induced cAMP accumulation (full-length GPR126 [10]): able to inhibit
EC50 (full-length GPR126 [10]; EC50, cAMP inhibition, full-length GPR126): 540 nM and ~540 nM
GPR126 activity in cAMP inhibition assay with Ala mutants (full-length GPR126 [11]): significantly impaired
potency in cAMP inhibition assay with GPR126 R1057Q mutant (full-length GPR126 [12]): decreased the potency
p-SRC Y416 level, F1085A or W1081A overexpressed in GPR126-silenced cells (SRC; 5 min): failed to increase
pY416 SRC phosphorylation, GPR126 wild-type or L937A overexpressed in GPR126-silenced cells (SRC; 5 min): able to promote
time of maximum phosphorylation after treatment (SRC; MDA-MB-231 cells): 5 min
phosphorylation of SRC at Y416, p-AKT S473 and p-ERK T202/Y204 (SRC; MDA-MB-231 cells, time-dependent): promoted

C[C@]12CC[C@H]3[C@@H](CCC4=CC(=O)CC[C@@]43C)[C@@H]1CC[C@@H]2O [testosterone]
EC50 (GPR126 [1]): 800 ± 60 nM
Emax compared with 126-SMP, cAMP accumulation (GPR126 [1]): less than one-sixth
effect on intracellular cAMP accumulation (GPR126 [1]): weak but detectable increase
